Consider 21 compounds from patent publication US6340670B1, “Acetal benzylmaltosides as inhibitors of smooth muscle cell proliferation” (American Home Products Corporation, priority 1998, dated 2002).

Data set [1] concerns Porcine Smooth Muscle Cell. Put plainly: Effects of Compounds on Cell Proliferation Using 3H Thymidine Incorporation. It is filed as cell-based. The conditions noted are these: for IC50: serum/growth factor stimulated cells, 24-36 h incubation, read-out: Porcine Smooth Muscle Cell Antiproliferation IC50. An outline of the steps: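 Early-passage (3-7) sub-confluent smooth muscle cells, serum-starved 24-48 h, were stimulated with growth factor or serum and treated with compound (1 to 100 μM, from 50% ethanol stock) for 24-36 h at 37° C. Proliferation by ^3H-thymidine incorporation into TCA-insoluble material, triplicate, relative to maximally stimulated cells (100%); given as IC50 or % inhibition.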

Like-named read-outs stand apart in the source and are kept apart here.

For `CC(=O)Nc1cc(COC2OC(COC(=O)c3cccnc3)C(OC3OC4COC(c5ccccc5)OC4C(OC(C)=O)C3OC(C)=O)C(OC(C)=O)C2OC(C)=O)ccc1Cl` (stereo not shown) [Example 55, Nicotinic acid 4,5-diacetoxy-6-(3-acetylamino-4-chloro-benzyloxy)-3-(7,8-diacetoxy-2-phenyl-hexahydro-pyrano[3,2-d][1,3]dioxin-6-yloxy)-tetrahydro-pyran-2-ylmethyl ester], the melting point is > 112 °C (dec.). The IC50 in data set [1] (Sus scrofa) amounted to 304 nM.
Consider `CC(=O)Nc1cc(COC2OC(COC(=O)c3ccc(Cl)cc3)C(OC3OC4COC(c5ccccc5)OC4C(O)C3O)C(O)C2O)ccc1Cl` (stereo not shown) [Example 36, 4-Chloro-benzoic acid 6-(3-acetylamino-4-chloro-benzyloxy)-3-(7,8-dihydroxy-2-phenyl-hexahydro-pyrano[3,2-d][1,3]dioxin-6-yloxy)-4,5-dihydroxy-tetrahydro-pyran-2-ylmethyl ester], for which the melting point is > 113 °C (dec.). Besides, in data set [1] (Sus scrofa), the IC50 turned out to be 89 nM.
The corresponding values for `COc1ccc(CC(=O)OCC2OC(OCc3ccc(Cl)c(NC(C)=O)c3)C(OC(C)=O)C(OC(C)=O)C2OC2OC3COC(c4ccccc4)OC3C(OC(C)=O)C2OC(C)=O)cc1OC` (stereo not shown) [Example 53, (3,4-Dimethoxy-phenyl)-acetic acid 4,5-diacetoxy-6-(3-acetylamino-4-chloro-benzyloxy)-3-(7,8-diacetoxy-2-phenyl-hexahydro-pyrano[3,2-d][1,3]dioxin-6-yloxy)-tetrahydro-pyran-2-ylmethyl ester] are > 98 °C (dec.) and 266 nM.
On to `O=C(OCC1OC(OCc2ccc(Cl)c([N+](=O)[O-])c2)C(O)C(O)C1OC1OC2COC(c3ccccc3)OC2C(O)C1O)c1cccnc1` (stereo not shown) [Example 32, Nicotinic acid 6-(4-chloro-3-nitro-benzyloxy)-3-(7,8-dihydroxy-2-phenyl-hexahydro-pyrano[3,2-d][1,3]dioxin-6-yloxy)-4,5-dihydroxy-tetrahydro-pyran-2-ylmethyl ester], for which the melting point is > 105 °C (dec.). Further, the IC50 in data set [1] (Sus scrofa) amounted to 405 nM.
Turning to `COc1ccc(C(=O)OCC2OC(OCc3ccc(Cl)c(NC(C)=O)c3)C(O)C(O)C2OC2OC3COC(c4ccccc4)OC3C(O)C2O)cc1` (stereo not shown) [Example 34, 4-Methoxy-benzoic acid 6-(3-acetylamino-4-chloro-benzyloxy)-3-(7,8-dihydroxy-2-phenyl-hexahydro-pyrano[3,2-d][1,3]dioxin-6-yloxy)-4,5-dihydroxy-tetrahydro-pyran-2-ylmethyl ester], the melting point was > 117 °C (dec.). In addition, the IC50 in data set [1] (Sus scrofa) worked out at 61 nM.
For the compound `CC(=O)Nc1cc(COC2OC(COC(=O)C(c3ccccc3)c3ccccc3)C(OC3OC4COC(c5ccccc5)OC4C(O)C3O)C(O)C2O)ccc1Cl` (stereo not shown) [Example 50, Diphenyl-acetic acid 6-(3-acetylamino-4-chloro-benzyloxy)-3-(7,8-dihydroxy-2-phenyl-hexahydro-pyrano[3,2-d][1,3]dioxin-6-yloxy)-4,5-dihydroxy-tetrahydro-pyran-2-ylmethyl ester], the melting point is > 106 °C (dec.). For the same compound, in data set [1] (Sus scrofa), the IC50 was 84 nM.
Consider `CC(=O)Nc1cc(COC2OC(COC(=O)C(c3ccccc3)c3ccccc3)C(OC3OC4COC(c5ccccc5)OC4C(OC(C)=O)C3OC(C)=O)C(OC(C)=O)C2OC(C)=O)ccc1Cl` (stereo not shown) [Example 51, Diphenyl-acetic acid 4,5-diacetoxy-6-(3-acetylamino-4-chloro-benzyloxy)-3-(7,8-diacetoxy-2-phenyl-hexahydro-pyrano[3,2-d][1,3]dioxin-6-yloxy)-tetrahydro-pyran-2-ylmethyl ester], for which the melting point was > 99 °C (dec.). In addition, the IC50 in data set [1] (Sus scrofa) was found to be 354 nM.
On to `CC(=O)Nc1cc(COC2OC(COC(=O)c3ccc(Cl)cc3)C(OC3OC4COC(c5ccccc5)OC4C(OC(C)=O)C3OC(C)=O)C(OC(C)=O)C2OC(C)=O)ccc1Cl` (stereo not shown) [Example 37, 4-Chloro-benzoic acid 4,5-diacetoxy-6-(3-acetylamino-4-chloro-benzyloxy)-3-(7,8-diacetoxy-2-phenyl-hexahydro-pyrano[3,2-d][1,3]dioxin-6-yloxy)-tetrahydro-pyran-2-ylmethyl ester], for which the melting point was 114 to 115 °C. Besides, in data set [1] (Sus scrofa), the IC50 stood at 588 nM.
For the compound `COc1ccc(CC(=O)OCC2OC(OCc3ccc(Cl)c(NC(C)=O)c3)C(O)C(O)C2OC2OC3COC(c4ccccc4)OC3C(O)C2O)cc1OC` (stereo not shown) [Example 52, (3,4-Dimethoxy-phenyl)-acetic acid 6-(3-acetylamino-4-chloro-benzyloxy)-3-(7,8-dihydroxy-2-phenyl-hexahydro-pyrano[3,2-d][1,3]dioxin-6-yloxy)-4,5-dihydroxy-tetrahydro-pyran-2-ylmethyl ester], the melting point is > 116 °C (dec.). In addition, the IC50 in data set [1] (Sus scrofa) was 48 nM.
On to `COc1ccc(C(=O)OCC2OC(OCc3ccc(Cl)c(NC(C)=O)c3)C(OC(C)=O)C(OC(C)=O)C2OC2OC3COC(c4ccccc4)OC3C(OC(C)=O)C2OC(C)=O)cc1` (stereo not shown) [Example 35, 4-Methoxy-benzoic acid 4,5-diacetoxy-6-(3-acetylamino-4-chloro-benzyloxy)-3-(7,8-diacetoxy-2-phenyl-hexahydro-pyrano[3,2-d][1,3]dioxin-6-yloxy)-tetrahydro-pyran-2-ylmethyl ester], for which the melting point was > 110 °C (dec.). Also, the IC50 in data set [1] (Sus scrofa) stood at 851 nM.
On to “N-{5-[(6-O-Benzyl-4′,6′-O-ethylidene-β-D-maltosyl)-oxy-methyl]-2-chloro-phenyl}-acetamide [Example 9]”, for which the IC50 in data set [1] turned out to be 83 nM.
`CC(=O)OC1C(OC2C(COC(=O)c3cccnc3)OC(OCc3ccc(Cl)c([N+](=O)[O-])c3)C(OC(C)=O)C2OC(C)=O)OC2COC(c3ccccc3)OC2C1OC(C)=O` [Example 33, (R)-(4-Chloro-3-nitrophenyl)methyl 4-[2,3-di-O-acetyl-4,6-O-(phenylmethylene)-α-D-glucopyranosyl]-β-D-glucopyranoside 2,3-diacetate 6-(3-pyridinecarboxylate)]: in data set [1], the IC50 is 312 nM.
Same read-out and setting: next, `CC(=O)Nc1cc(COC2OC(COC(=O)c3ccccc3)C(OC3OC4COC(Cc5ccccc5)OC4C(O)C3O)C(O)C2O)ccc1Cl` [Example 17, N-{5-[(6-O-Benzoyl-4′,6′-O-((1R)-2-phenyl-ethylidene)-β-D-maltosyloxy)-methyl]-2-chloro-phenyl}-acetamide]: 35 nM; `CC(=O)Nc1cc(COC2OC(COC(=O)c3ccc([N+](=O)[O-])cc3)C(OC3OC4COC(c5ccccc5)OC4C(O)C3O)C(O)C2O)ccc1Cl` [Example 41, (R)-N-[2-Chloro-5-[[[6-O-(4-nitrobenzoyl)-4-O-[4,6O-(phenylmethylene)-α-D-glucopyranosyl]-β-D-glucopyranosyl]oxy]methyl]phenyl]acetamide]: 273 nM; `COC(=O)Nc1cc(COC2OC(CO)C(OC3OC4COC(c5ccccc5)OC4C(O)C3O)C(O)C2O)ccc1Cl` [Example 80, N-{5-[(4′,6′-O-Benzylidene-β-D-maltosyl)-oxy-methyl]-2-chloro-phenyl}-carbamic acid methyl ester]: 7570 nM.
On the same count and under the same terms, next, `C=CCCC(=O)Nc1cc(COC2OC(CO)C(OC3OC4COC(c5ccccc5)OC4C(O)C3O)C(O)C2O)ccc1Cl` [Example 65, N-{2-Chloro-5-[(4′,6′-O-benzylidene-β-D-maltosyl)-oxy-methyl]-phenyl}-pent-4-enamide]: 17800 nM; `CCOCCC1OCC2OC(OC3C(COC(=O)c4ccccc4)OC(OCc4ccc(Cl)c(NC(C)=O)c4)C(O)C3O)C(O)C(O)C2O1` [Example 21, N-{5-{[6-O-Benzoyl-4′,6′-O-((1R)-3-ethoxypropylidene)-β-D-maltosyloxy]-methyl}-2-chloro-phenyl}-acetamide]: 62 nM; `O=C(OCC1OC(OCc2ccc(Cl)c(NC(=O)c3ccco3)c2)C(O)C(O)C1OC1OC2COC(c3ccccc3)OC2C(O)C1O)c1ccccc1` [Example 64, Furan-2-carboxylic acid {5-[(6-O-benzoyl-4′,6′-O-benzylidene-β-D-maltosyl)-oxy-methyl]-2-chloro-phenyl}-amide]: 50 nM.
Turning to `CC(=O)Nc1cc(COC2OC(COC(=O)c3ccccc3)C(OC3OC4COC(c5ccccc5)OC4C(O)C3O)C(O)C2O)ccc1C#N` [Example 84, N-{5-[(6-O-Benzoyl-4′,6′-O-benzylidene-β-D-maltosyl)-oxy-methyl]-2-cyano-phenyl}-acetamide], the IC50 in data set [1] came to 250 nM.
Consider `CC(=O)Nc1cc(COC2OC(COC(=O)c3cccc(I)c3)C(OC3OC4COC(c5ccccc5)OC4C(O)C3O)C(O)C2O)ccc1Cl` [Example 44, N-{5-[(4′,6′-O-Benzylidene-6-O-(3-iodo)-benzoyl-β-D-maltosyl)-oxy-methyl]-2-chloro-phenyl}-acetamide], for which the IC50 in data set [1] is 62 nM.
With `CS(=O)(=O)Nc1cc(COC2OC(CO)C(OC3OC4COC(c5ccccc5)OC4C(O)C3O)C(O)C2O)ccc1Cl` [Example 83, N-{5-[(4′,6′-O-Benzylidene-β-D-maltosyl)-oxy-methyl]-2-chloro-phenyl}-methanesulfonamide], in data set [1] (@ 50 μM, control (100%) = maximally stimulated cells), the “Porcine Smooth Muscle Cell Antiproliferation, percent inhibition” value was 18% @ 50.
